Values after ≈ are worked out from the molar mass of the structure shown. Read-outs that look alike come from different tables or passages of the source. Marks after values point to notes of the source that are not given here.
Columns and labels:
[1] = DPPH free radical scavenging assay
[2] = ABTS free radical scavenging assay
[3] = FRAP ferric reducing power assay
[4] = TRC (total reducing capacity) ferric reducing power assay; conditions: L-ascorbic acid equivalents
[5] = target: T1, α-amylase from porcine pancreas (Sus scrofa, UniProt P00690); experiment: biochemical
T1 construct: purchased Merck KGaA (Darmstadt, Germany) type VI-B (catalogue number not given); host or cells: porcine pancreas
T1 sequence (P00690 16-511): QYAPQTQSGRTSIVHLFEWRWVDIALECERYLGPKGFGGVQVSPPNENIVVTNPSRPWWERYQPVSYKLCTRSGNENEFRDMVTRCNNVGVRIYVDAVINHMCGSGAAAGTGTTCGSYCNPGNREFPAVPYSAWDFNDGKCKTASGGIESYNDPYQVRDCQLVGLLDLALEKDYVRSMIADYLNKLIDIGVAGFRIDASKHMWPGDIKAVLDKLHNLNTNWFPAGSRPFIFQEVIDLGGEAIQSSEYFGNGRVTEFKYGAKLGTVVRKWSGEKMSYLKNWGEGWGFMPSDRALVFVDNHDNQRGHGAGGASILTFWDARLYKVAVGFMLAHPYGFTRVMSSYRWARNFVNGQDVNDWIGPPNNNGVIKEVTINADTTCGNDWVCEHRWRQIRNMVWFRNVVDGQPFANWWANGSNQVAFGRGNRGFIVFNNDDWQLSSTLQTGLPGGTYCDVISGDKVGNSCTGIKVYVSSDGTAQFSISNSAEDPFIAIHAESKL

[6] = target: α-glucosidase from bakers’ yeast (Saccharomyces cerevisiae, UniProt P53341); format: biochemical
Sequence of α-glucosidase from bakers’ yeast (P53341 whole entry, looked up): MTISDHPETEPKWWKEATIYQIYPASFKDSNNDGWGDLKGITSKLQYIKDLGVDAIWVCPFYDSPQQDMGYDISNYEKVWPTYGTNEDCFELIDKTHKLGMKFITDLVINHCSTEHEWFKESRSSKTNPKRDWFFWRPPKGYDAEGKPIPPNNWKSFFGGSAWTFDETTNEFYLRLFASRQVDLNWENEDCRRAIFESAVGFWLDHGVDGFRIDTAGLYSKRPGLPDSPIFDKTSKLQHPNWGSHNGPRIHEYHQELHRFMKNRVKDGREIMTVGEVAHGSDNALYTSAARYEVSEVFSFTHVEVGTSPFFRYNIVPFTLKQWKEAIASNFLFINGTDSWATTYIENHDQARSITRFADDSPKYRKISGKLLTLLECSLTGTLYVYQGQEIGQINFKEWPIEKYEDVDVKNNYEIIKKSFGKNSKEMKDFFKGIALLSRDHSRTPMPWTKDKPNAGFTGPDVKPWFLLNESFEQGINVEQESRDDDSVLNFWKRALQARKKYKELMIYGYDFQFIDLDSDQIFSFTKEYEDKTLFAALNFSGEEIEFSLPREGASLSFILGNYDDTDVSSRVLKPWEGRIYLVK

[7] = target: acetylcholinesterase (AChE) from Electrophorus electricus (Electrophorus electricus, UniProt O42275); experiment: biochemical
Sequence of acetylcholinesterase (AChE) from Electrophorus electricus (O42275 24-633 limits assumed): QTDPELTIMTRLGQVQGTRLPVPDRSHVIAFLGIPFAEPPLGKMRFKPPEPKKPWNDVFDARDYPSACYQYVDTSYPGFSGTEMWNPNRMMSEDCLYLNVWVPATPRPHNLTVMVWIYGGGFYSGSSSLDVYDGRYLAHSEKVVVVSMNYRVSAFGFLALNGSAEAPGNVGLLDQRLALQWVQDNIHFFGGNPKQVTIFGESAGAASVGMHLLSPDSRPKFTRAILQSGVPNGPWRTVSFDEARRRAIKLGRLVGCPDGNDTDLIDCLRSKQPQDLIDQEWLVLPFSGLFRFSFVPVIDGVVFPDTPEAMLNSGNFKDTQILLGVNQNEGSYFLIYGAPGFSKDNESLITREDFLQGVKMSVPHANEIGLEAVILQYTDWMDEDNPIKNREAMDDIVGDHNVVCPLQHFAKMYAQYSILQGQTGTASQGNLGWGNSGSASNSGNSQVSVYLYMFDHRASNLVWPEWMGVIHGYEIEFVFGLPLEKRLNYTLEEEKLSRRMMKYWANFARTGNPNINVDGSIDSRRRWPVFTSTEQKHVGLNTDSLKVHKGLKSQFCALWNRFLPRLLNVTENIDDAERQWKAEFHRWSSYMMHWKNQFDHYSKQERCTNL

[8] = target: butyrylcholinesterase (BChE) from equine serum (Equus caballus, UniProt P81908); experiment: biochemical; format: biochemical
Sequence of butyrylcholinesterase (BChE) from equine serum (P81908 whole entry, looked up): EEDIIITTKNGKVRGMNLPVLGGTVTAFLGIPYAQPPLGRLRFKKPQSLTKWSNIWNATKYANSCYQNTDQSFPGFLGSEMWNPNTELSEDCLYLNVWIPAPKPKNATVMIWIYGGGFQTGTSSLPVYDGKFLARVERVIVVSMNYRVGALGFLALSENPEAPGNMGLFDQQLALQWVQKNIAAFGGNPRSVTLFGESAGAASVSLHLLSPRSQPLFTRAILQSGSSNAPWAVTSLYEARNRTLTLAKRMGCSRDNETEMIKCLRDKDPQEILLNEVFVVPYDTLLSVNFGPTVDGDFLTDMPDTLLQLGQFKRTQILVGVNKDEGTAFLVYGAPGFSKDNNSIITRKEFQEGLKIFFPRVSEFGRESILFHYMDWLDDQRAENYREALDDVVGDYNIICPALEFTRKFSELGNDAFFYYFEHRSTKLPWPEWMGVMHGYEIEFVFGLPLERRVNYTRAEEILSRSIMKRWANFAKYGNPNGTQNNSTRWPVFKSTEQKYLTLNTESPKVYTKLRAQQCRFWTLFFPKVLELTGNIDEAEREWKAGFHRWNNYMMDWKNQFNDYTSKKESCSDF

[9] = test system: Staphylococcus aureus ATCC 6538; experiment: Broth microdilution MIC; format: cell-based; conditions: 24 h, extracts 62.5–1000, compounds 31.25–500 µg/mL tested
[10] = test system: Enterococcus faecalis ATCC 29212; experiment: Broth microdilution MIC; format: cell-based; conditions: 24 h
[11] = test system: Bacillus subtilis ATCC 6633; experiment: Broth microdilution MIC; format: cell-based; conditions: 24 h
[12] = test system: Escherichia coli ATCC 8739; experiment: Broth microdilution MIC; format: cell-based; conditions: 24 h
[13] = test system: Klebsiella pneumoniae NCIMB 9111; experiment: Broth microdilution MIC; format: cell-based; conditions: 24 h
[14] = test system: Salmonella abony NCTC 6017; experiment: Broth microdilution MIC; format: cell-based
[15] = test system: Pseudomonas aeruginosa ATCC 9027; experiment: Broth microdilution MIC; format: cell-based; conditions: 24 h
[16] = test system: Candida albicans ATCC 10231; experiment: Broth microdilution MIC; format: cell-based; conditions: 48 h
[17] = concentrations 50–1000 µg/mL; ref Jeong et al. (2010) [24]; cited from earlier work
[18] = target: α-amylase; conditions: ref Jeong et al. (2012) [29], cited from earlier work
[19] = target: α-glucosidase; conditions: cited from earlier work
[20] = test system: clinical isolates of both Gram-positive and Gram-negative bacteria; design: method as in Alves et al. (2013) [45]; conditions: ref Alves et al. (2013) [45]; cited from earlier work
[21] = test system: methicillin-resistant Staphylococcus aureus (MRSA); conditions: ref Alves et al. (2013) [45]; cited from earlier work

COc1cc(/C=C/C(=O)O)ccc1O [FA, ferulic acid]
DPPH IC50 [1]: 0.0068 ± 0.0001 ^c mg/mL | ABTS IC50 [2]: 0.0034 ± 0.0001 ^d mg/mL | FRAP [3]: 2.02 ± 0.04 ^a µmol Fe^2+/g | FRAP ([3]; listed as ferulic acid): 2.02 µmol Fe^2+/g | TRC [4]: 2467.90 ± 91.26 ^a mg L-AAE/g | TRC ([4]; listed as ferulic acid): 2467.90 mg L-AAE/g | α-amilase IC50 [5]: 3.35 ± 0.85 ^b mg/mL | α-glucosidase IC50 [6]: 1.49 ± 0.18 ^a mg/mL | AChE IC50 [7]: 4.10 ± 0.37 ^c mg/mL | BChE IC50 [8]: 1.97 ± 0.08 ^c mg/mL | Minimal Inhibitory Concentrations MICs [9]: 62.5 µg/mL | Minimal Inhibitory Concentrations MICs [10]: 125 µg/mL | Minimal Inhibitory Concentrations MICs [11]: 62.5 µg/mL | Minimal Inhibitory Concentrations MICs [12]: >500 µg/mL | Minimal Inhibitory Concentrations MICs [13]: >500 µg/mL | Minimal Inhibitory Concentrations MICs [14]: >500 µg/mL | Minimal Inhibitory Concentrations MICs [15]: >500 µg/mL | Minimal Inhibitory Concentrations MICs [16]: >500 µg/mL | DPPH radical inhibition [17]: 84.3–92.3% | α-amylase IC50 ([18]; mg/mL figure given in parentheses beside mM): 1840 µg/mL | IC50 [18]: 9.5 mM | α-glucosidase IC50 ([19]; mg/mL figure given in parentheses beside mM, ref Jeong et al. (2012) [29]): 950 µg/mL | IC50 ([19]; ref Jeong et al. (2012) [29]): 4.9 mM | α-glucosidase IC50 ([19]; ref Nile and Park (2014) [34]): 251.4 µg/mL | MIC [20]: ≥ 1000 µg/mL | MIC [21]: 500 µg/mL (≈ 2.57 mM)

— PMC11820700, “Antioxidant, Enzyme-Inhibitory and Antimicrobial Activity of Underutilized Wheat and Maize Crop Residues” (Plants, 2025)
